# Data taken from US20230102836A1, “Amoebicidal Compositions for Contact Lens Solutions” (University of the West of Scotland, priority 2019, published 2023).
# Values joined by “and” are separate entries in the source; they are usually repeats but may differ in a detail not shown here. Identical values can stand only once. Like-named read-outs stand apart in the source and are kept apart here. Marks after values point to notes of the source that are not given here.
# How the values were obtained:
# [1] = test system: A. castellanii trophozoites; assay: Cytotoxicity assay on trophozoites (resazurin / alamarBlue); type: cell-based, Acanthamoeba castellanii ATCC 50370; settings: for IC50: Acanthamoeba castellanii
# Experimental: (§1) Acanthamoeba castellanii ATCC 50370 trophozoites and cysts were cultured in Peptone Glucose (PG) medium and encystment medium (Chagla A H, Griffiths A J (1974) Microbiology: 85(1): 139-145) respectively at 25° C. Cysts were prepared by incubating trophozoites for 8 days in encystment medium and integrity validated with calcofluor (0.25 μg/ml) assay (Gatti S et al (2010) J. Med. Microbiol.; 59: 1324-1330) or sodium dodecyl sulfate (SDS, 0.5% w/v) disintegration assay (Dudley R et al (2005) Acta Trop.; 9: 100-8) and microscopic observation.
# The compounds used in this study all contained alkyl-carbon chains: three APCs [dodecyl-PC (APC12), tetradecyl-PC. (APC14) and hexadecyl-PC (APC16)] (Anatrace) and four QACs [docdecyl-TMAB (QAC12), tetradecyl-TMAB (QAC14), hexadecyl-TMAB (QAC16) and octadecyl-TMAB (QAC18)](Sigma). All were prepared to a stock concentration of 1 mg/ml and diluted as required by the experimental protocol in the cytotoxicity assays. […]
# […] Resazurin (7-Hydroxy-31-phenoxazin-3-one 10-oxide; 5 mg/ml; McBride J et al (2005) J. Clin. Microbiol.; 43: 629-634) and trypan blue (0.4 μg/ml; Mafra C S P et al (2013) Investig. Ophthalmol. Vis. Si.; 54: 6363-6372) were then added to trophozoites and cysts respectively after being exposed to the compounds and the cell viability estimated microscopically and from changes in absorbance (at 595 nm and 570 nm) respectively.
# (§2) Efficacy was expressed as a percentage of untreated controls for each drug concentration used and the data used to calculate the IC50. Cell density was estimated using the modified Neubaur hemocytometer and expressed as cells/ml.
# [2] = cited from earlier work; for CMC value: APCs
# [3] = test system: A. castellanii trophozoites; assay: Drug wash-out / alamarBlue-reversion assay, trophozoites; type: cell-based, Acanthamoeba castellanii ATCC 50370
# [4] = test system: A. castellanii trophozoites; assay: Morphometric analysis of trophozoites; type: cell-based, Acanthamoeba castellanii ATCC 50370
# Experimental: Acanthamoeba trophozoites ([…]) incubated without (FIG. 2A), with QAC18 at 37.5 μg/ml for 1 h at 25° C. (FIG. 2B), and 0.5% SDS for 30 min (FIG. 2C). QAC18 reduced trophozoites sizes from 29.02±0.23 (FIG. 2A) to 7.87 f 0.93 (FIG. 2B) which disintegrated after 30 min treatment with SDS (FIG. 2C).
# A. castellanii trophozoites incubated with and without QAC for a duration determined by experimental protocol were examined microscopically and their sizes measured using the Open Laboratory (Improvision) calibration graticule. The mean body sizes were determined.
# [5] = test system: A. castellanii trophozoites; assay: Combined assay with fixed QAC12 (alamarBlue); type: cell-based, Acanthamoeba castellanii ATCC 50370; settings: for IC50: Acanthamoeba castellanii, 96 h, 96 h at 25° C.
# Experimental: Acanthamoeba trophozoites (10^5 cells/ml. n=5/treatment) treated with 100 μg/ml doubly diluted to 0.06 μg/ml of QAC18 (a,b) or APC16 (c,d) for 96 h at 25° C. […] Similarly. APC16 alone at the same concentration (closed circle, FIG. 6C, FIG. 6D) in combination with QAC12 at 18.75 μg/ml (open squares, d) QAC12 at […] (open squares, FIG. 6C). Data are mean absorbance at 595 nm t SD; n=4 independent experiments performed in triplicates. IC50s were not statistically significant between QAC12 at both concentrations and QAC16 (p>0.05, FIG. 6A, FIG. 6B) but significant with APC16 (p<0.05, FIG. 6C, FIG. 6D).
# (§3) For the combined assay, similar concentrations of QAC18 and APC16 were prepared and 18.75 μg/ml and 37.5 μg/ml of QAC12 added (to a final volume of 100 μl) were added to 10^5 cells/mi in a 96-well plate and later incubated at 25° C. for a duration determined by the experimental protocol. Resazurin (7-Hydroxy-31-phenoxazin-3-one 10-oxide; 5 mg/ml; McBride J et al (2005) J. Clin. Microbiol.; 43: 629-634) and trypan blue (0.4 μg/ml; Mafra C S P et al (2013) Investig. Ophthalmol. Vis. Si.; 54: 6363-6372) were then added to trophozoites and cysts respectively after being exposed to the compounds and the cell viability estimated microscopically and from changes in absorbance (at 595 nm and 570 nm) respectively.
# A. castellanii cysts [6] = assay: Cytotoxicity assay on cysts (trypan blue); type: cell-based, Acanthamoeba castellanii ATCC 50370; settings: Acanthamoeba castellanii
# Experimental: as §1
# The compounds used in this study all contained alkyl-carbon chains: three APCs [dodecyl-PC (APC12), tetradecyl-PC. (APC14) and hexadecyl-PC (APC16)] (Anatrace) and four QACs [docdecyl-TMAB (QAC12), tetradecyl-TMAB (QAC14), hexadecyl-TMAB (QAC16) and octadecyl-TMAB (QAC18)](Sigma). All were prepared to a stock concentration of 1 mg/ml and diluted as required by the experimental protocol in the cytotoxicity assays. A. castellanii trophozoites and cysts (at 10^5 cells/ml) with or without APCs or QACs (concentrations ranging from […] doubly diluted to 0.04 μg/ml to a final volume of 100 μl) in a 96-well plate were incubated at 25° C. for a duration determined by the experimental protocol.
# as §3, §2
# A. castellanii cysts [7] = assay: Drug wash-out / alamarBlue-reversion assay, cysts; type: cell-based, Acanthamoeba castellanii ATCC 50370; settings: Cysts; also: key: +: indicates cells reverting back to trophozoites after washout; and capable of oxidizing reduced alamarBlue from blue to pink after 8 days; −: indicates cell that did not revert to trophozoites after wash-out and unable to oxidise reduced alamarBlue solution
# Experimental: For the drug kinetic assay, viability was assessed by the linked alamarBlue-reversion assay. Drug-treated cysts were washed with PBS and fresh PG medium was added to allow reversion to trophozoites for 5 days, after which, alamar blue was added and viability estimated as described above.
# The cysticidal activity of QAC16 to QAC18 strongly correlated with (a) the alkyl-carbon chain lengths (Table 2) and the duration of drug contact (FIG. 8H). Like trophozoites, death was via leakage judged by 40% and 50% increase in DNA and proteins in the external milieu after 1 h (FIGS. 9A and 9B). To investigate if the cyst were viable, a complementary viability assay that involved, drug washout, incubation in PG medium to allow reversion of viable cyst to trophozoite for 7 days, and estimation of viability using the oxidation of resazurin after 6 h.
# [8] = test system: Acanthamoeba trophozoites; assay: Checkerboard dilution QAC-APC interaction (Bliss model); type: cell-based, Acanthamoeba castellanii; settings: APC12, APC14, APC16; 96 h at 25° C.
# Experimental: Acanthamoeba trophozoites (10^5 cells/ml. n=5/treatment) treated with 100 μg/ml doubly diluted to 0.06 μg/ml of QAC12 (FIG. 7A), […], QAC16 (FIG. 7C) and QAC18 (FIG. 7D) with APC 12 (i), APCI 4 (ii) and APC16 (iii) for 96 h at 25° C. Cell viability estimated by the alamarBlue assay the dose-response curves used to produce a surface analysis (right panel) and the interaction profile determined using the Bliss model. The degree of interaction characterised by the QCScore heuristic score are produced as heat map (left panel). The colour of each cell in the heatmap and the surface analysis represents the assay response at that dose combination; red to orange, antagonistic: yellow to green, additive and blue, synergistic.
# The change in potency between QAC and APC prompted us to used the checkerboard dilution method to identify synergistic interactions (FIG. 7A-D). Three interaction profiles, antagonistic (orange to red), additive (yellow to green) and synergistic (blue) were observed, with optimal synergistic interactions deemed to be significant occurring between 20-38%; (FIG. 7).
# [9] = Table 4, read-out: IC50 against Acanthamoeba spp
# [10] = Table 5, 72 h and 96 h at 26° C., alamar blue, read-out: IC50 Acanthamoeba trophozoites
compound,measurement,setting,value
10-Undecylenyl-1-phosphocholine [APC11UPC],Increase in activity relative to saturated counterpart APC12,[1],3 fold
same,IC50 against Acanthamoeba spp,[1]; Table 4,3.1 ± 0.4 µg/mL
"CCCCCCCCOP(=O)([O-])OCC[N+](C)(C)C [APC8, Octylphosphocholine]",IC50,[1]; [9],46.4 ± 2.3 µg/mL
"CCCCCCCCCCOP(=O)([O-])OCC[N+](C)(C)C [APC10, Decylphosphocholine]",IC50,[1]; [9],58 ± 0.9 µg/mL
"CC(C)CCC(CCC(C)C)OP(=O)([O-])OCC[N+](C)(C)C [APC11PC, 2,8-Dimethyl-5-Nonylphosphocholine]",IC50,[1]; [9],> 37.5 µg/mL
"CCCCCCCCCCCCOP(=O)([O-])OCC[N+](C)(C)C [APC12, Dodecylphosphocholine]",IC50,[1]; [10],22.9 µg/mL and 65.2 µM
same,CMC value,[2],1000.00* μM
"CCCCCCCCCCCCCCOP(=O)([O-])OCC[N+](C)(C)C [APC14, Tetradecylphosphocholine]",IC50,[1]; [9],8.9 ± 0.2 µg/mL
same,IC50,[1]; [10],8.9 µg/mL and 23.4 µM
same,CMC value,[2],120.00* μM
"CCCCCCCCCCCCCCCCOP(=O)([O-])OCC[N+](C)(C)C [APC16, Hexadecylphosphocholine]",IC50,[1]; [9],7.9 ± 0.3 µg/mL
same,IC50,[1]; [10],7.9 µg/mL and 19.4 µM
same,Effect after APC16 wash-out and incubation in PG medium,[3]; 12.5 μg/ml to 100 μg/ml after 96 h,amoebostatic
same,Reduction in trophozoite size relative to untreated,[4],4 fold
same,Effect after drug wash-out (inability to oxidise resazurin),"[5]; APC16 at 3.12, 4.68, 6.25 and 9.36 μg/ml combined with QAC12, not alone",cytotoxic
same,IC50,"[5]; QAC12 at 18.75 μg/ml, read-out: Estimated IC50 of APC16 with QAC12",3.4 µg/mL
same,IC50,"[5]; QAC12 at 37.5 μg/ml, read-out: Estimated IC50 of APC16 with QAC12",2.5 µg/mL
same,IC50,"[5]; without QAC12, read-out: IC50 of APC16 only control",7.6 µg/mL
same,CMC value,[2],13.00* μM
"CCCCCCCCCCCCCCCCCCOP(=O)([O-])OCC[N+](C)(C)C [APC18, Octadecylphosphocholine]",IC50,[1]; [9],3 ± 0.3 µg/mL
"CCCCCCCCCCCC[N+](C)(C)CCCCCCCCCCCC.[Br-] [DAB, Didodecyldimethyl ammonium bromide]",IC50,[1]; [9],27 ± 2.2 µg/mL
"CCCCCCCCCCCCCC[N+](C)(C)C.[Br-] [QAC14, tetradecyltrimethyl ammonium bromide]",IC50,"[1]; Table 2, read-out: IC50 A. castellanii trophozoites",9.07 µg/mL and 27 µM
same,IC50,"A. castellanii cysts [6]; Table 2, read-out: IC50 A. castellanii cysts",22.1 µg/mL and 65 µM
same,IC50,"A. castellanii cysts [6]; after 96 h, trypan blue viability assay, read-out: Estimated IC50 against matured cysts",15 µg/mL
same,Back transformation to trophozoites after drug wash-out,"[3]; 9.375 μg/ml, 1 h",+
same,Back transformation to trophozoites after drug wash-out,"[3]; 9.375 μg/ml, 24 h",+
same,Back transformation to trophozoites after drug wash-out,"[3]; 9.375 μg/ml, 48 h",+
same,Back transformation to trophozoites after drug wash-out,"[3]; 9.375 μg/ml, 72 h",+
same,Back transformation to trophozoites after drug wash-out,"[3]; 9.375 μg/ml, 96 h",+
same,Back transformation to trophozoites after drug wash-out,"[3]; 18.75 μg/ml, 1 h",+
same,Back transformation to trophozoites after drug wash-out,"[3]; 18.75 μg/ml, 24 h",+
same,Back transformation to trophozoites after drug wash-out,"[3]; 18.75 μg/ml, 48 h",+
same,Back transformation to trophozoites after drug wash-out,"[3]; 18.75 μg/ml, 72 h",+
same,Back transformation to trophozoites after drug wash-out,"[3]; 18.75 μg/ml, 96 h",+
same,Back transformation to trophozoites after drug wash-out,"[3]; 37.50 μg/ml, 1 h",+
same,Back transformation to trophozoites after drug wash-out,"[3]; 37.50 μg/ml, 24 h",−
same,Back transformation to trophozoites after drug wash-out,"[3]; 37.50 μg/ml, 48 h",−
same,Back transformation to trophozoites after drug wash-out,"[3]; 37.50 μg/ml, 72 h",−
same,Back transformation to trophozoites after drug wash-out,"[3]; 37.50 μg/ml, 96 h",−
same,Amoebotoxicity after wash-out and replacement with PG medium,[3]; after 24 h at 18.75 μg/ml,amoebotoxic
same,Back transformation to trophozoites after drug wash-out,"A. castellanii cysts [7]; 9.375 μg/ml, 24 h",+
same,Back transformation to trophozoites after drug wash-out,"A. castellanii cysts [7]; 9.375 μg/ml, 48 h",+
same,Back transformation to trophozoites after drug wash-out,"A. castellanii cysts [7]; 9.375 μg/ml, 72 h",+
same,Back transformation to trophozoites after drug wash-out,"A. castellanii cysts [7]; 18.75 μg/ml, 24 h",+
same,Back transformation to trophozoites after drug wash-out,"A. castellanii cysts [7]; 18.75 μg/ml, 48 h",+
same,Back transformation to trophozoites after drug wash-out,"A. castellanii cysts [7]; 18.75 μg/ml, 72 h",+
same,Back transformation to trophozoites after drug wash-out,"A. castellanii cysts [7]; 37.50 μg/ml, 24 h",+
same,Back transformation to trophozoites after drug wash-out,"A. castellanii cysts [7]; 37.50 μg/ml, 48 h",+
same,Back transformation to trophozoites after drug wash-out,"A. castellanii cysts [7]; 37.50 μg/ml, 72 h",+
same,Interaction profile of QAC combined with APCs,[8],less frequent and ‘noisy’
same,CMC,[2]; QACs,2.9 ± 0.1 µM
